Test results reported in patent US6753456B2, “Point mutant mice with hypersensitive alpha 4 nicotinic receptors: dopaminergic pathology and increased anxiety” (California Institute of Technology, priority 2000, dated 2004).
“Also recorded” adds a separate entry of the source. Structures can show the parent of a compound that is named as a salt.

Legend:
[1] = target: T1, mutated (α4 Leu9′Ser) rat α4β2 receptors (Rattus norvegicus, UniProt P09483+P12390, L285S); assay: Two-electrode voltage clamp, agonist concentration-response of mutated α4β2 receptors expressed in Xenopus oocytes; format: cell-based
T1 construct: expressed in transfected cells; host or cells: Xenopus oocytes (capped mRNA injected, α4L9′S/β2 1:1)
Experimental: FIG. 1C, the agonist is choline.
Xenopus Oocyte Injections and Electrophysiology The α4 and β2 subunits were subcloned into pAMV-PA (Nowak, et al.(1998) Methods Enzymol. 293, 504-529). Capped mRNA transcripts were prepared, and α4/β2 (2 ng, 1:1) or α4L9′/β2 (0.2-0.5 ng, 1:1) were microinjected into Xenopus oocytes. Twenty-four to seventy-two hours later, two-electrode voltage clamp recordings were made in solutions containing zero […].
Chimeric males from the resulting two mouse lines, neo-intact and neo-deleted, were bred to C57BL/6 females to generate animals heterozygous for the mutation, and mice were tested for the mutation by sequencing of genomic DNA (FIG. 1F).

[2] = test system: α4β2 receptors; details: rats, Felix and Levin (1997); cited from earlier work
[3] = test system: WT and heterozygous (het) neo-intact mutants; assay: Ambulation (locomotion) of WT and heterozygous neo-intact mice after drug injection; format: in vivo, mouse
[4] = test system: heterozygous L9′S α4 and wild type mice; assay: Behavioral scoring of nicotine-induced seizure activity and Straub tail; format: in vivo, mouse
From the text: To pharmacologically characterize the L9′S mutation effects on seizure induction in the α4 mice behavioral responses to pharmacologic stimulation were videotaped and scored.

[5] = test system: nAChRs; details: Damaj, et al. (1999); cited from earlier work
[6] = test system: neurons from transgenic L9′S and WT mice; details: 10 μM nicotine
From the text: The paradigms described above can be implemented in slices derived from other brain areas such as the cortex and the midbrain. Large inhibitory and excitatory potentials can be recorded from pyramidal cells in cortical slices (Hasselmo and Barkai (1995). J. Neurosci 15, 6592-604).

[7] = test system: heterozygous and WT mice; details: nicotine 0.1 mg/kg
From the text: Mouse electroencephalography can also be used to examine the susceptibility of transgenic mice to seizures. A surgical and electrophysiological rig that allows simultaneous video-electroencephalographic (EEG) recordings in free moving animals can be used. For EEG electrode implants, mice are anesthetized with a ketamine-xylazine mixture, 0.2 mm-diameter tungsten wire electrodes are positioned through drilled holes in the cranium in a twisted pair configuration and placed stereotactically within different regions of the brain. A three-pin microconnector (ground electrode plus two recording electrodes) is cemented to the skull surface. Following surgery, mice are allowed to recover for 48 hours.

[8] = test system: cells in acute midbrain slices from α4 mutant heterozygous and wild type animals; assay: Electrophysiology on acute midbrain slices; format: cell-based, mouse; details: heterozygous vs wild type
From the text: Electrophysiological studies on brain slices derived from transgenic α4 mice. Slices obtained from frontal cerebral cortex, hippocampus, and midbrain can be used for field and intracellular recordings. Field recordings serve to determine whether various compounds cause or block synchronized firing in these neuronal ensembles. Whole-cell patch recordings provide information regarding activation and/or desensitization of nAChRs in individual neurons when exposed to various agonists and antagonists, as well as the effects of these compounds on firing rates. Because interneurons express most of the α4 receptors, recordings from interneurons and IPSC's in pyramidal cells are useful for study.

T1 sequence (P09483 31-630 L285S): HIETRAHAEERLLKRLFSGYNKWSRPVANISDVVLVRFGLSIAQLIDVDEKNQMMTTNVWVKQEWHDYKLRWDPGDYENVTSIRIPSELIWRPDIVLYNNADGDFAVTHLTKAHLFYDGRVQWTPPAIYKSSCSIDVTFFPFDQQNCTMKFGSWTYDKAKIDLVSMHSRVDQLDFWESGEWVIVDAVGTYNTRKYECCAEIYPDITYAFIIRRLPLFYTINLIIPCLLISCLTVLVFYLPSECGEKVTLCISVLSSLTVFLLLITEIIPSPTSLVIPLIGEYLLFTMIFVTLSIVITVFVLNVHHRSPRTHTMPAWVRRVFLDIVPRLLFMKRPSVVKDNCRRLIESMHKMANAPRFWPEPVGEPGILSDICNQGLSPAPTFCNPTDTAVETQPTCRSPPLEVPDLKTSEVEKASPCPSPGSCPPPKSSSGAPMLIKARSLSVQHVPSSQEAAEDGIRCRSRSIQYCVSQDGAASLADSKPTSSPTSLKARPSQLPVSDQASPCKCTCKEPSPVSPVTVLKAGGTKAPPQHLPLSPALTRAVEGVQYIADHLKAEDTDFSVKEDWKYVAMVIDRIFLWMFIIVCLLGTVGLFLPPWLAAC
T1 sequence (P12390 25-500): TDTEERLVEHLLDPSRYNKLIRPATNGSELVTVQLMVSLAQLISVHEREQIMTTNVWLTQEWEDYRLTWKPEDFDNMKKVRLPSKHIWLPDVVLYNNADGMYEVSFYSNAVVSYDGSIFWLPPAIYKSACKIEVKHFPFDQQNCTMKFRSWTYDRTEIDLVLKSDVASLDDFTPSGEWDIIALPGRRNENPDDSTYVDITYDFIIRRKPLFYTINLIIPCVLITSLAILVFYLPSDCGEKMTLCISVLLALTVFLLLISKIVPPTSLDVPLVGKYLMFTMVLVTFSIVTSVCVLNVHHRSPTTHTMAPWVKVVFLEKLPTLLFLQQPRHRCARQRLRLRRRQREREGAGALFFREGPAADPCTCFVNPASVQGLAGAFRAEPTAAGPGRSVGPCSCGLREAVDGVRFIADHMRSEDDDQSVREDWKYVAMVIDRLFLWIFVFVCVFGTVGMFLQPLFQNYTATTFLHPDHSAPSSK

With `CCN(CC)CCCCCCCCOC(=O)c1cc(OC)c(OC)c(OC)c1.Cl` [8-(diethylamino)octyl 3,4,5-trimethoxyben-zoate hydrochloride] the “effect on increased leakage currents in oocytes expressing α4L9′S/β2 receptor” value ([1]; 500 nM, nine oocytes) was “blockable”.
For `CO[C@H]1CC=C2CCN3CCC4=C(CC(=O)OC4)[C@]23C1` [DHβE, Dihydro-β-erythroidine], the seizure induction [2] is given as “induce seizures”.
With `C[C@H](N)Cc1ccccc1` [amphetamine, d-amphetamine sulfate] the “locomotor response in young mice” value ([3]; 5 mg/kg i.p., about 3-month-old WT and heterozygous mice) was “stimulated locomotion” and the “locomotor response of heterozygous mice at 11 months vs 3 months” value ([3]; 5 mg/kg i.p., heterozygous, 11 months of age) was “declines significantly; also recorded: reduced amphetamine-induced locomotion”.
In the case of `C[N+](C)(C)CCO` [choline], the “activation of the mutated receptor, % of maximal values” ([1]; choline about 10 μM) is reported as 20%.
For `CNC1(C)C2CCC(C2)C1(C)C` (stereo not shown) [mecamylamine], the “effect on nicotine effects (seizures, Straub tail)” value ([4]; mecamylamine 2 mg/kg, both hets and WT) is listed as “partially blocked” and the “block of nicotine-induced seizures” value [5] is listed as “effective nicotine-induced seizure blocker”.
With `CN1CCCC1c1cccnc1` (stereo not shown) [nicotine] the “doses required for severe tonic-clonic seizures in WT animals” value ([4]; WT) was over 10 mg/kg, the “threshold to nicotine-induced seizures in L9′S knock-in mice” value ([4]; summary statement) was “reduced threshold” and the “effect on locomotor activity of WT mice” value ([3]; nicotine 0.02 mg/kg i.p., WT mice) was “no significant difference; also recorded: not affected”. The “effect on locomotor activity of heterozygous knock-in mice” value ([3]; nicotine 0.02 mg/kg i.p., heterozygous mice, 5-15 min after injection) was “significant reduction of locomotor activity; also recorded: sharply reduces the level of activity”, the “response of WT-derived cells” value ([6]; WT) was “remained silent or required much larger concentrations to be activated” and the “response of neurons from transgenic mice” value ([6]; majority of neurons) was “responded with spontaneous bursts”. For the same compound, the “EEG recordings of WT” value ([7]; WT) was “unaffected”, the “EEG response of a heterozygous mouse” value ([7]; heterozygous) was “Rapid-burst discharges” and the “amplitude of 6 Hz theta rhythm in a heterozygous mouse” value ([7]; heterozygous) was “two-fold increased amplitude”. The “concentrations to which heterozygous cells respond relative to those activating receptors in wild type slices” value [8] was “ten times lower”, the “sensitivity of L9′S nAChRs expressed in frog oocytes to the ligand” value ([1]; summary statement) was “increased sensitivity” and the “shift of the dose-response relation to the left by the Leu-9′-Ser mutation (increase in agonist sensitivity)” value ([1]; α4β2 receptor tested in oocytes, mutant vs WT) was “about 30 fold”.
